{"source": "patent US8273771B2", "about": "“Ischemic disorder or disease inhibitors” (Pronas Pharma AB, priority 2007, dated 2012)", "tested_on": "rats with induced SAH", "assay": "Autoradiographic measurements of regional and global CBF after SAH", "assay_type": "in vivo, rat", "conditions": "for reduction in regional CBF (rCBF) after SAH: 18 brain regions", "procedure": "In addition they were treated with 20-50 μl; 10^-6 M of SB386023-b (a kind gift from Dr A A Parsons, GSK, UK) or the same volume of vehicle repeatedly 6, 12, 24 and 36 h after the induced SAH. This dose was based on a previous in vivo study with SAH.\nIn addition, they were treated with the PKC inhibitor RO-31-7549 (Calbiochem, Sweden) or vehicle in conjunction with the operation and after the induced SAH. All animals treated with RO-31-7549 received […] injections intracisternally of RO-31-7549 or vehicle in similar volume. Thus, 20 to 50 μl 10-^6 mol/L of RO-31-7549 was injected intracisternally at 30 mins before the induced SAH and after the SAH 20 μl 10-^6 mol/L of RO-31-7549 was administered repeatedly after 3, 6, 12, 24 and 32 h from the first RO-31-7549 injection. This dose was chosen on the basis of previous detailed work on isolated cerebral arteries (Hansen-Schwartz et al, 2002), the dose was chosen at near maximum inhibition and calculation of cerebrospinal fluid volume/turnover.\nRegional and global cerebral blood flow was measured by a model originally described by Sakurada et al., (1978) and modified by Gjedde et al., (1980). In brief, after 48 hours of observation rats in the various groups (sham, SAH+vehicle and SAH treated with the raf inhibitor) were anaesthetized using 5% halothane in N2O/O2 (30:70). The animal was intubated and artificially ventilated with inhalation of 0.5-1.5% halothane in N2O/O2 (70:30) during the surgical procedure. The anaesthesia and the respiration were monitored by regularly withdrawing arterial blood samples for blood gas analysis (Radiometer AS, Denmark). A catheter to measure MABP was placed in the right femoral artery and a catheter for blood sampling was placed in the left femoral artery. This catheter was connected to a constant velocity withdrawal pump (Harvard apparatus 22, USA) for mechanical integration of tracer concentration. In addition, a catheter was inserted in one femoral vein for injection of heparin and for infusion of the radioactive tracer. The MABP was continuously monitored with a Powerlab Unit (ADInstruments, UK). A temperature probe was inserted into the rectum of the rat to record the temperature, which was regularly maintained at 37° C. The hematocrit was measured by a hematocrit centrifuge (Beckman Microfuge 11, USA). After 30 minutes of equilibration a bolus injection of 50 uCi of 14Ciodoantipyrine 4[N-methyl-14C] (Perkin-Elmer, Boston, USA) was given i.v. Arterial blood (122 μl) was withdrawn over 20 seconds. Immediately after this the animal was decapitated, the brain removed and immersed in isopentane (J. T. Baker, Deventer, Netherlands) chilled to −50° C. The arterial blood sample was transferred to liquid scintillation counting vials containing 1 ml mixture of Soluene-350 (Perkin-Elmer, Boston, USA) and Isopropanol (J. T. Baker, Deventer, Netherlands) (1:1). After 2 hours at 60° C., 0.2 ml of 30% hydrogen peroxide was added to the vials, and the samples were maintained at room temperature for 15-30 minutes. Thereafter the samples were kept at 60° C. for 30 minutes and 10-15 ml Hionic-Fluor (Perkin-Elmer, Foster, Calif., USA) was added. The β-radioactivity scintillation counting was performed on the samples with a program that included quench correction (Packard 2000 CA, Denmark). The 14C activity in the tissue was determined after sectioning the brain in 20 μm sections at −20° C. in a cryostat (Wild Leitz A/S, Glostrup, Denmark). The sections were exposed to x-ray films (Kodak, Denmark) together with 14C methylmethacrylate standards (Amersham Life Science, England) and exposed the films for 20 days. Densities of the autoradiograms were measured with a Macintosh computer equipped with an analog CF 4/1 camera (Kaiser, Germany) and a transparency flat viewer (Color-Control 5000, Weilheim, Germany). The 14C content was determined in several brain regions (see Table 2). […]", "key": {"[1]": {"conditions": "intracisternal injections from 30 min before SAH and repeatedly after"}}, "data": [{"compound": "Cn1cc(C2=C(c3cn(CCCN)c4ccccc34)C(=O)NC2=O)c2ccccc21", "note": "[RO-31-7549]", "values": [{"measurement": "global reduction in CBF after SAH", "setting": "[1]", "result": "prevented the marked reduction in CBF"}, {"measurement": "reduction in regional CBF (rCBF) after SAH", "setting": "[1]", "result": "prevented this reduction in rCBF"}]}, {"compound": "Oc1cc(-c2nc(-c3ccccc3)[nH]c2-c2ccncc2)ccc1Cl", "note": "[SB386023-b]", "values": [{"measurement": "global cerebral blood flow", "setting": "measured at 48 h, treatment 6 h after the SAH, control 140±6, SAH 63±2", "result": "128±4", "unit": "ml/100 g/min"}, {"measurement": "reduction in regional CBF (rCBF) after SAH", "setting": "treatment at 6 h after SAH", "result": "prevented this reduction in rCBF"}]}, {"compound": "N#CC(=C(/N)Sc1ccccc1N)/C(C#N)=C(\\N)Sc1ccccc1N", "note": "[U0126]", "values": [{"measurement": "reduction in regional CBF (rCBF) after SAH", "setting": "treatment at 0 h / in conjunction with the SAH", "result": "prevented this reduction in rCBF"}, {"measurement": "reduction in regional CBF (rCBF) after SAH", "setting": "treatment at 6 h after SAH", "result": "prevented this reduction in rCBF"}]}]}
